Format in all cases: cell-based
The target of one experiment is T1, human TLR9 (Homo sapiens, UniProt Q9NR96).
T1 construct: host or cells: HEK-Blue cells (HEK293-derived reporter line)
T1 sequence (Q9NR96 26-1032): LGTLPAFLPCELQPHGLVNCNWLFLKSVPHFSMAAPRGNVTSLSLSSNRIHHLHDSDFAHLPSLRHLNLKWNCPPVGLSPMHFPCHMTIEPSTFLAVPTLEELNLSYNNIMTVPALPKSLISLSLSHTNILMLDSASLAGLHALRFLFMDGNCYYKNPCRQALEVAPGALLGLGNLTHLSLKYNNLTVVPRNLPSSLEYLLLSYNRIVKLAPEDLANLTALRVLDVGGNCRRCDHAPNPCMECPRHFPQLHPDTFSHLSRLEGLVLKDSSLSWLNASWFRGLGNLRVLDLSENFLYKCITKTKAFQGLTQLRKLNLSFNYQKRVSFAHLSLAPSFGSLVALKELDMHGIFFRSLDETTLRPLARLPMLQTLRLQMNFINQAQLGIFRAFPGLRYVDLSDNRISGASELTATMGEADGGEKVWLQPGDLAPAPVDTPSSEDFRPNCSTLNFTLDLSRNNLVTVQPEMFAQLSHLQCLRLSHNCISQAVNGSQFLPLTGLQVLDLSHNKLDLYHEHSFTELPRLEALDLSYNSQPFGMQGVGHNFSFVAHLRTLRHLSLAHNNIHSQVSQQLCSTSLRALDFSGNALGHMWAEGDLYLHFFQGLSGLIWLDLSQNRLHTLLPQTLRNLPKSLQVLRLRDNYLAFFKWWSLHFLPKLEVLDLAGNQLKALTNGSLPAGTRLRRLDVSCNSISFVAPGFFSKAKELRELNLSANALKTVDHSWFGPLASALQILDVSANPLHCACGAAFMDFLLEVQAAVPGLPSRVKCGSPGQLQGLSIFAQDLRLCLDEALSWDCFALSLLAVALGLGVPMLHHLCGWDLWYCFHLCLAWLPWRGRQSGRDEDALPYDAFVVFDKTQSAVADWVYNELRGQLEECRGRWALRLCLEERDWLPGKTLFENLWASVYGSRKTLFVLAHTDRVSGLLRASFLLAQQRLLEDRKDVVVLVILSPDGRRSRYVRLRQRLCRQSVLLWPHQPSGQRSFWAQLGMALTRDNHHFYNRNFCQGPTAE
As to the kind of experiment: TLR9 inhibition reporter assay (HEK-Blue cells, SEAP reporter, ODN2006 stimulation). As to conditions: HEK-Blue cells overexpressing human TLR9, SEAP reporter, ODN2006 5 nM. An outline of the steps:
(§1)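 HEK-Blue cells overexpressing the receptor, with NF-κB/AP-1-driven SEAP, were pre-treated 30 min at room temperature with compound (0.05 nM–50 μM), then stimulated with gardiquimod 7.5 μM (TLR7), R848 15.9 μM (TLR8) or ODN2006 5 nM (TLR9). SEAP was read after 22 h at 37 °C as percent inhibition.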
(A reporter such as luciferase makes a cellular process visible.)

The target in a further experiment is T2, human TLR8 (Homo sapiens, UniProt Q9NR97).
T2 construct: host or cells: HEK-Blue cells (HEK293-derived reporter line)
T2 sequence (Q9NR97 27-1041): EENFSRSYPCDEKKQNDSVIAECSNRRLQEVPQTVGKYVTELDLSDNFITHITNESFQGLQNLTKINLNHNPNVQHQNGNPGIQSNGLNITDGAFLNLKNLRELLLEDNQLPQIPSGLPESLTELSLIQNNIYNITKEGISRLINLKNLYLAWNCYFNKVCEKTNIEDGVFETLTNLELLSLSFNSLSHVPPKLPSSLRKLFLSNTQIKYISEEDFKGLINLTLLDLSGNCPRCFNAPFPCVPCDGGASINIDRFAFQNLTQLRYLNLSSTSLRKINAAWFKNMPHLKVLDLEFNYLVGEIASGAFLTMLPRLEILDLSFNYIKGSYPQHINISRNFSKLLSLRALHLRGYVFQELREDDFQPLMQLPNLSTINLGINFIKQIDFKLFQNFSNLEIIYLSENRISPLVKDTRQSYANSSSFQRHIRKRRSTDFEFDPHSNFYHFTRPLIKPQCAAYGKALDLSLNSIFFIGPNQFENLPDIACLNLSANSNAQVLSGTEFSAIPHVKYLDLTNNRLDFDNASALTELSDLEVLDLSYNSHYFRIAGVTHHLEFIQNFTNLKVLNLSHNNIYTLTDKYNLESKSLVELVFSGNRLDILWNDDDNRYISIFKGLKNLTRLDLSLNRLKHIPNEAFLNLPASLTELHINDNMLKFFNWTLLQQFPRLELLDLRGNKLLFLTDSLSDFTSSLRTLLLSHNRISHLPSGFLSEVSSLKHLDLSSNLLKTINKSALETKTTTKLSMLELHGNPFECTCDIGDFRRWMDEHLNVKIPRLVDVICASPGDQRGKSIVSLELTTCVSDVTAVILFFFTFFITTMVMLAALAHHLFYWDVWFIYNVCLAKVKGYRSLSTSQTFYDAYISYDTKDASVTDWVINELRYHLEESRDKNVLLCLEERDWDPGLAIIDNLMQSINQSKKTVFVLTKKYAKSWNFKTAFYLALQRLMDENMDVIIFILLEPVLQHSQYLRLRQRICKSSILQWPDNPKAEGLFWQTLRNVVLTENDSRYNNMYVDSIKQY
As to the kind of experiment: TLR8 inhibition reporter assay (HEK-Blue cells, SEAP reporter, R848 stimulation). As to conditions: HEK-Blue cells overexpressing human TLR8, SEAP reporter, R848 15.9 μM. A digest of the protocol: as §1

Another experiment deals with T3, human TLR7 (Homo sapiens, UniProt Q9NYK1).
T3 construct: host or cells: HEK-Blue cells (HEK293-derived reporter line)
T3 sequence (Q9NYK1 27-1049): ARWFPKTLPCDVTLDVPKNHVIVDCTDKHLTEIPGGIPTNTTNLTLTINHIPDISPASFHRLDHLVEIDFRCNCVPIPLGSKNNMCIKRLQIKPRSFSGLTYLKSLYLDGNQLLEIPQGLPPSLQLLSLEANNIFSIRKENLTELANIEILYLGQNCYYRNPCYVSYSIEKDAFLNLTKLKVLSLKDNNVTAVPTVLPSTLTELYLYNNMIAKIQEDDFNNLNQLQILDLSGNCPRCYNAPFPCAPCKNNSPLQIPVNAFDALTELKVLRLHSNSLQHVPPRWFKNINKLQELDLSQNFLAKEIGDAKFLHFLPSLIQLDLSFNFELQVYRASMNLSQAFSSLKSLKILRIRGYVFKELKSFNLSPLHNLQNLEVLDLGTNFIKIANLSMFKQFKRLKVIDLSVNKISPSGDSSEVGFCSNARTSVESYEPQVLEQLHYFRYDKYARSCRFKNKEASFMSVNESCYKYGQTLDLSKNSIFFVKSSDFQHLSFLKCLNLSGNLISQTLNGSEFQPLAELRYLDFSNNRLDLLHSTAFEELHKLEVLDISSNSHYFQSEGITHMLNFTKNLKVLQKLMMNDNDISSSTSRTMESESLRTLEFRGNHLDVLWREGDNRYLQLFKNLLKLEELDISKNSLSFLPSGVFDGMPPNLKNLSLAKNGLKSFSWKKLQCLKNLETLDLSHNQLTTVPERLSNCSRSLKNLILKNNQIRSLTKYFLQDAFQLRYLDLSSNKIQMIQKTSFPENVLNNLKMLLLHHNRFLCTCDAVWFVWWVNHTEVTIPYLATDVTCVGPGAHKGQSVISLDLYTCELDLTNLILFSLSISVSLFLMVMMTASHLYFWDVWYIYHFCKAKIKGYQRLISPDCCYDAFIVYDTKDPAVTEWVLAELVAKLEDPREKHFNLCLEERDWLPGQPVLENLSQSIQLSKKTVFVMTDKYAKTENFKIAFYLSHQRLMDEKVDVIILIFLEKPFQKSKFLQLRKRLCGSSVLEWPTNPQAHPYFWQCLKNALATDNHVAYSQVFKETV
As to the kind of experiment: TLR7 inhibition reporter assay (HEK-Blue cells, SEAP reporter, gardiquimod stimulation). The settings on record: HEK-Blue cells overexpressing human TLR7, SEAP reporter, gardiquimod 7.5 μM. A digest of the protocol: as §1

The IC50 is the point on the concentration scale where inhibition reaches its midpoint. Read a high IC50 as weaker potency in that assay.

Take `COc1cc2[nH]c(-c3ccnc4[nH]ncc34)c(C(C)C)c2cc1C1CCNCC1` [Example 255, 4-(3-isopropyl-6-methoxy-5-(piperidin-4-yl)-1H-indol-2-yl)-1H-pyrazolo[3,4-b]pyridine]: the 50% inhibitory concentration (IC50) against human TLR9 is 1000 to 50000 nM; on human TLR8 it was 100 to 1000 nM; on human TLR7, less than 100 nM.

With `CC(C)c1c(-c2cn3ccnc3cc2C(F)(F)F)[nH]c2ccc(C3CCNCC3)cc12` [Example 135, 6-(3-isopropyl-5-(piperidin-4-yl)-1H-indol-2-yl)-7-(trifluoromethyl)imidazo[1,2-a]pyridine], the IC50 on human TLR9 is 1000 to 50000 nM; at human TLR8, less than 100 nM; against human TLR7, 100 to 1000 nM.

Take `COc1cc(-c2[nH]c3ccc(C4CCN(CC(=O)N(C)C)CC4)cc3c2C(C)C)cn2ccnc12` [Example 433, 2-(4-(3-isopropyl-2-(8-methoxyimidazo[1,2-a]pyridin-6-yl)-1H-indol-5-yl)piperidin-1-yl)-N,N-dimethylacetamide]: the figures for the concentration for half-maximal inhibition (IC50) against human TLR9, against human TLR8 and on human TLR7 were 100 to 1000 nM, less than 100 nM and less than 100 nM, respectively.

For the compound `Cc1cc(-c2[nH]c3ccc(C4CCN(C(=O)[C@@H]5C[C@@H](O)CN5)CC4)cc3c2C(C)C)cc2nccn12` [Example 539, ((2S,4R)-4-hydroxypyrrolidin-2-yl)(4-(3-isopropyl-2-(5-methylimidazo[1,2-a]pyridin-7-yl)-1H-indol-5-yl)piperidin-1-yl)methanone], the IC50 against human TLR9, against human TLR8 and against human TLR7 was 1000 to 50000 nM each time.

Turning to `Cc1cc(-c2[nH]c3ccc(C4CCN(Cc5ncn(C)n5)CC4)cc3c2C(C)C)cn2nncc12` [Example 881, 6-(3-isopropyl-5-(1-((1-methyl-1H-1,2,4-triazol-3-yl)methyl)piperidin-4-yl)-1H-indol-2-yl)-4-methyl-[1,2,3]triazolo[1,5-a]pyridine], the figures for the IC50 against human TLR9, against human TLR8 and on human TLR7 were 1000 to 50000 nM, 100 to 1000 nM and 1000 to 50000 nM, respectively.

In the case of `CNC(=O)CN1CCC(c2ccc3[nH]c(-c4cnc5ccnn5c4)c(C(C)C)c3c2)CC1` [Example 360, 2-(4-(3-isopropyl-2-(pyrazolo[1,5-a]pyrimidin-6-yl)-1H-indol-5-yl)piperidin-1-yl)-N-methylacetamide], the IC50 at human TLR9 was 1000 to 50000 nM; on human TLR8 it was greater than 3130 nM; on human TLR7 it was 1000 to 50000 nM.

`Cc1ccc(-c2[nH]c3ccc(C4CCN(C(=O)C[C@H](C)O)CC4)cc3c2C(C)C)c2ncnn12` [Example 599, (S)-3-hydroxy-1-(4-(3-isopropyl-2-(5-methyl-[1,2,4]triazolo[1,5-a]pyridin-8-yl)-1H-indol-5-yl)piperidin-1-yl)butan-1-one]: the IC50 on human TLR9 fell in the range of 1000 to 50000 nM; against human TLR8 it was 100 to 1000 nM; against human TLR7 it was 100 to 1000 nM.

In the case of `Cc1cn2cc(-c3[nH]c4ccc(C5CCN(C(=O)CC(C)(C)O)CC5)cc4c3CC(F)F)ccc2n1` [Example 607, 1-(4-(3-(2,2-difluoroethyl)-2-(2-methylimidazo[1,2-a]pyridin-6-yl)-1H-indol-5-yl)piperidin-1-yl)-3-hydroxy-3-methylbutan-1-one], the values for the IC50 against human TLR9, against human TLR8 and on human TLR7 were greater than 50000 nM, 1000 to 50000 nM and 100 to 1000 nM, respectively.

Regarding `Cc1cc2nnnn2cc1-c1[nH]c2ccc(C3CCN(C4COC4)CC3)cc2c1C(C)C` [Example 742, 6-(3-isopropyl-5-(1-(oxetan-3-yl)piperidin-4-yl)-1H-indol-2-yl)-7-methyltetrazolo[1,5-a]pyridine], the half-maximal inhibitory concentration (IC50) at human TLR9 was 1000 to 50000 nM; against human TLR8 it was 100 to 1000 nM; against human TLR7 it was less than 100 nM.

`CCc1c(-c2cnnc3[nH]ccc23)[nH]c2ccc(C3CCNCC3)cc12` [Example 245, 4-(3-ethyl-5-(piperidin-4-yl)-1H-indol-2-yl)-7H-pyrrolo[2,3-c]pyridazine]: the figures for the IC50 on human TLR9, on human TLR8 and against human TLR7 were 1000 to 50000 nM, 100 to 1000 nM and 100 to 1000 nM, respectively.

Turning to `CCc1c(-c2ccc3ncc(C#N)n3n2)[nH]c2ccc(C3CCNCC3)cc12` [Example 102, 6-(3-ethyl-5-(piperidin-4-yl)-1H-indol-2-yl)imidazo [1,2-b]pyridazine-3-carbonitrile], the half-maximal inhibitory concentration (IC50) at human TLR9, on human TLR8 and on human TLR7 was 1000 to 50000 nM in each case.

Regarding `CC(C)c1c(-c2ccnc3[nH]ncc23)[nH]c2ccc(C3CCNCC3)cc12` [Example 230, 4-(3-isopropyl-5-(piperidin-4-yl)-1H-indol-2-yl)-1H-pyrazolo[3,4-b]pyridine], the IC50 against human TLR9 was 100 to 1000 nM; on human TLR8, less than 100 nM; against human TLR7, less than 100 nM.

As for `CC(C)c1c(-c2ccnc3[nH]ncc23)[nH]c2ccc(C3CCN(CCN)CC3)cc12` [Example 655, 2-(4-(3-isopropyl-2-(1H-pyrazolo[3,4-b]pyridin-4-yl)-1H-indol-5-yl)piperidin-1-yl)ethan-1-amine], the results for the IC50 against human TLR9, on human TLR8 and against human TLR7 were 100 to 1000 nM, less than 100 nM and less than 100 nM, respectively.

(Values after US11739098B2 (BRISTOL-MYERS SQUIBB COMPANY, priority 2017, dated 2023).)
